In patent publication US8044082B2, “N-phenylacetamide inhibitors of the enzyme SOAT-1 and pharmaceutical/cosmetic compositions comprised thereof” (Galderma Research & Development, priority 2007, dated 2011):

SMILES	melting point
CC(C)c1cccc(C(C)C)c1NC(=O)CN1C(=O)N(CC2CCCCC2)C2(CCCCC2)C1=O [compound (I.27), 2-(1-Cyclohexylmethyl-2,4-dioxo-1,3-diazaspiro[4.5]dec-3-yl)-N-(2,6-di-isopropylphenyl)acetamide]	219 °C
CCCCCN1C(=O)N(CC(=O)Nc2c(C(C)C)cccc2C(C)C)C(=O)C12CCCCC2 [compound (I.29), N-(2,6-Diisopropylphenyl)-2-(2,4-dioxo-1-pentyl-1,3-diazaspiro[4.5]dec-3-yl)acetamide]	200 °C
CCCCCCCN1C(=O)N(CC(=O)Nc2c(C(C)C)cccc2C(C)C)C(=O)C12CCCCC2 [compound (I.30), N-(2,6-Diisopropylphenyl)-2-(1-heptyl-2,4-dioxo-1,3-diazaspiro[4.5]dec-3-yl)acetamide]	208 °C
CC(C)c1cccc(C(C)C)c1NC(=O)CN1C(=O)N(CC2CC2)C2(CCCCC2)C1=O [compound (I.31), 2-(1-Cyclopropylmethyl-2,4-dioxo-1,3-diazaspiro[4.5]dec-3-yl)-N-(2,6-di-isopropylphenyl)acetamide]	240 °C
CC(C)c1cccc(C(C)C)c1NC(=O)CN1C(=O)N(CC(C)(C)C)C2(CCCCC2)C1=O [compound (I.32), N-(2,6-Diisopropylphenyl)-2-[1-(2,2-dimethylpropyl)-2,4-dioxo-1,3-diazaspiro[4.5]dec-3-yl]acetamide]	250 °C
CCCCCCN1C(=O)N(CC(=O)Nc2c(C(C)C)cccc2C(C)C)C(=O)C12CCCCC2 [compound (I.35), N-(2,6-Diisopropylphenyl)-2-(1-hexyl-2,4-dioxo-1,3-diazaspiro[4.5]dec-3-yl)acetamide]	205 °C
CCCCCCCCCN1C(=O)N(CC(=O)Nc2c(C(C)C)cccc2C(C)C)C(=O)C12CCCCC2 [compound (I.43), N-(2,6-Diisopropylphenyl)-2-(1-nonyl-2,4-dioxo-1,3-diazaspiro[4.5]dec-3-yl)acetamide]	183 °C
CCCCCCCCN1C(=O)N(CC(=O)Nc2c(C(C)C)cccc2C(C)C)C(=O)C12CCCCC2 [compound (I.44), N-(2,6-Diisopropylphenyl)-2-(1-octyl-2,4-dioxo-1,3-diazaspiro[4.5]dec-3-yl)acetamide]	202 °C
Cc1ccc(N2C(=O)N(CC(=O)Nc3c(C)cc(C)cc3C)C(=O)C23CCCCC3)cc1 [compound (I.45), 2-(2,4-Dioxo-1-p-tolyl-1,3-diazaspiro[4.5]dec-3-yl)-N-(2,4,6-trimethylphenyl)acetamide]	266 °C
CCc1cccc(CC)c1NC(=O)CN1C(=O)N(c2ccc(C)cc2)C2(CCCCC2)C1=O [compound (I.48), N-(2,6-Diethylphenyl)-2-(2,4-dioxo-1-p-tolyl-1,3-diazaspiro[4.5]dec-3-yl)-acetamide]	214 °C
CCc1cc(C)cc(CC)c1NC(=O)CN1C(=O)N(c2ccc(C)cc2)C2(CCCCC2)C1=O [compound (I.49), N-(2,6-Diethyl-4-methylphenyl)-2-(2,4-dioxo-1-p-tolyl-1,3-diazaspiro[4.5]dec-3-yl)acetamide]	223 °C
Cc1ccc(N2C(=O)N(CC(=O)Nc3c(C)cc(C)cc3Cl)C(=O)C23CCCCC3)cc1 [compound (I.50), N-(2-Chloro-4,6-dimethylphenyl)-2-(2,4-dioxo-1-p-tolyl-1,3-diazaspiro[4.5]dec-3-yl)acetamide]	248 °C
CCc1cccc(CC)c1NC(=O)CN1C(=O)N(CCc2ccccc2)C2(CCCCC2)C1=O [compound (I.51), N-(2,6-Diethylphenyl)-2-(2,4-dioxo-1-phenethyl-1,3-diazaspiro[4.5]dec-3-yl)acetamide]	178 °C
Cc1ccc(N2C(=O)N(CC(=O)Nc3c(C)cccc3C(C)(C)C)C(=O)C23CCCCC3)cc1 [compound (I.53), N-(2-tert-Butyl-6-methylphenyl)-2-(2,4-dioxo-1-p-tolyl-1,3-diazaspiro[4.5]dec-3-yl)acetamide]	120 °C
CCCN1C(=O)N(CC(=O)Nc2c(CC)cccc2CC)C(=O)C12CCCCC2 [compound (I.55), N-(2,6-Diethylphenyl)-2-(2,4-dioxo-1-propyl-1,3-diazaspiro[4.5]dec-3-yl)acetamide]	222 °C
CCCCc1ccc(N2C(=O)N(CC(=O)Nc3c(CC)cccc3CC)C(=O)C23CCCCC3)cc1 [compound (I.56), 2-[1-(4-Butylphenyl)-2,4-dioxo-1,3-diazaspiro[4.5]dec-3-yl]-N-(2,6-diethyl-phenyl)acetamide]	171 °C
CCc1ccc(N2C(=O)N(CC(=O)Nc3c(CC)cccc3CC)C(=O)C23CCCC3)cc1 [compound (I.57), N-(2,6-Diethylphenyl)-2-[1-(4-ethylphenyl)-2,4-dioxo-1,3-diazaspiro[4.4]non-3-yl]acetamide]	191 °C
CCCCCCCN1C(=O)N(CC(=O)Nc2c(CC)cccc2CC)C(=O)C12CCCCC2 [compound (I.58), N-(2,6-Diethylphenyl)-2-(1-heptyl-2,4-dioxo-1,3-diazaspiro[4.5]dec-3-yl)acetamide]	126 °C
CCc1cccc(CC)c1NC(=O)CN1C(=O)N(CC(C)C)C2(CCCCC2)C1=O [compound (I.59), N-(2,6-Diethylphenyl)-2-(1-isobutyl-2,4-dioxo-1,3-diazaspiro[4.5]dec-3-yl)acetamide]	209 °C

Next, values leading:

melting point	SMILES
252 °C	CC(C)c1cccc(C(C)C)c1NC(=O)CN1C(=O)N(c2ccccc2Cl)C2(CCCCC2)C1=O [compound (I.20), 2-[1-(2-Chlorophenyl)-2,4-dioxo-1,3-diazaspiro[4.5]dec-3-yl]-N-(2,6-di-isopropylphenyl)acetamide]
238 °C	Cc1ccccc1N1C(=O)N(CC(=O)Nc2c(C(C)C)cccc2C(C)C)C(=O)C12CCCCC2 [compound (I.21), N-(2,6-Diisopropylphenyl)-2-(2,4-dioxo-1-o-tolyl-1,3-diazaspiro[4.5]dec-3-yl)acetamide]
214 °C	CC(C)c1cccc(C(C)C)c1NC(=O)CN1C(=O)N(Cc2ccccc2)C2(CCCCC2)C1=O [compound (I.22), 2-(1-Benzyl-2,4-dioxo-1,3-diazaspiro[4.5]dec-3-yl)-N-(2,6-diisopropyl-phenyl)acetamide]
270 °C	CC(C)c1cccc(C(C)C)c1NC(=O)CN1C(=O)N(c2ccc(Cl)cc2)C2(CCCC2)C1=O [compound (I.24), 2-[1-(4-Chlorophenyl)-2,4-dioxo-1,3-diazaspiro[4.4]non-3-yl]-N-(2,6-di-isopropylphenyl)acetamide]
253 °C	CCCN1C(=O)N(CC(=O)Nc2c(C(C)C)cccc2C(C)C)C(=O)C12CCCCC2 [compound (I.25), N-(2,6-Diisopropylphenyl)-2-(2,4-dioxo-1-propyl-1,3-diazaspiro[4.5]dec-3-yl)acetamide]
233 °C	CC(C)CN1C(=O)N(CC(=O)Nc2c(C(C)C)cccc2C(C)C)C(=O)C12CCCCC2 [compound (I.28), N-(2,6-Diisopropylphenyl)-2-(1-isobutyl-2,4-dioxo-1,3-diazaspiro[4.5]dec-3-yl)acetamide]
229 °C	COc1ccccc1N1C(=O)N(CC(=O)Nc2c(C(C)C)cccc2C(C)C)C(=O)C12CCCCC2 [compound (I.33), N-(2,6-Diisopropylphenyl)-2-[1-(2-methoxyphenyl)-2,4-dioxo-1,3-diazaspiro[4.5]dec-3-yl]acetamide]
278 °C	Cc1ccc(N2C(=O)N(CC(=O)Nc3c(C(C)C)cccc3C(C)C)C(=O)C23CCCC3)cc1 [compound (I.34), N-(2,6-Diisopropylphenyl)-2-(2,4-dioxo-1-p-tolyl-1,3-diazaspiro[4.4]non-3-yl)acetamide]
221 °C	CCc1ccc(N2C(=O)N(CC(=O)Nc3c(C(C)C)cccc3C(C)C)C(=O)C23CCCCC3)cc1 [compound (I.36), N-(2,6-Diisopropylphenyl)-2-[1-(4-ethylphenyl)-2,4-dioxo-1,3-diazaspiro[4.5]dec-3-yl]acetamide]
246 °C	CCc1ccc(N2C(=O)N(CC(=O)Nc3c(C(C)C)cccc3C(C)C)C(=O)C23CCCC3)cc1 [compound (I.37), N-(2,6-Diisopropylphenyl)-2-[1-(4-ethylphenyl)-2,4-dioxo-1,3-diazaspiro[4.4]non-3-yl]acetamide]
220 °C	CCCCc1ccc(N2C(=O)N(CC(=O)Nc3c(C(C)C)cccc3C(C)C)C(=O)C23CCCCC3)cc1 [compound (I.38), 2-[1-(4-Butylphenyl)-2,4-dioxo-1,3-diazaspiro[4.5]dec-3-yl]-N-(2,6-diisopropylphenyl)acetamide]
228 °C	CCCCc1ccc(N2C(=O)N(CC(=O)Nc3c(C(C)C)cccc3C(C)C)C(=O)C23CCCC3)cc1 [compound (I.40), 2-[1-(4-Butylphenyl)-2,4-dioxo-1,3-diazaspiro[4.4]non-3-yl]-N-(2,6-diisopropylphenyl)acetamide]
232 °C	CC(C)c1cccc(C(C)C)c1NC(=O)CN1C(=O)N(c2ccc(OCc3ccccc3)cc2)C2(CCCC2)C1=O [compound (I.41), 2-[1-(4-Benzyloxyphenyl)-2,4-dioxo-1,3-diazaspiro[4.4]non-3-yl]-N-(2,6-di-isopropylphenyl)acetamide]
230 °C	CC(C)c1cccc(C(C)C)c1NC(=O)CN1C(=O)N(c2ccc(CO)cc2)C2(CCCCC2)C1=O [compound (I.42), N-(2,6-Diisopropylphenyl)-2-[1-(4-hydroxymethylphenyl)-2,4-dioxo-1,3-diazaspiro[4.5]dec-3-yl]acetamide]
195 °C	Cc1ccc(N2C(=O)N(CC(=O)Nc3c(C)cccc3C(C)C)C(=O)C23CCCCC3)cc1 [compound (I.47), 2-(2,4-Dioxo-1-p-tolyl-1,3-diazaspiro[4.5]dec-3-yl)-N-(2-isopropyl-6-methylphenyl)acetamide]
188 °C	CCc1ccc(N2C(=O)N(CC(=O)Nc3c(CC)cccc3CC)C(=O)C23CCCCC3)cc1 [compound (I.54), N-(2,6-Diethylphenyl)-2-[1-(4-ethylphenyl)-2,4-dioxo-1,3-diazaspiro[4.5]dec-3-yl]acetamide]
118 °C	CC(C)c1cccc(C(C)C)c1NC(=O)CN1C(=O)N(c2ccc(OCc3ccccc3)cc2)C2(CCCCC2)C1=O [compound (I.60), 2-[1-(4-Benzyloxyphenyl)-2,4-dioxo-1,3-diazaspiro[4.5]dec-3-yl]-N-(2,6-di-isopropylphenyl)acetamide]
